Assay results taken from ChEMBL document CHEMBL3045679, “Microwave-assisted synthesis and pharmacological studies of novel 5-deazaalloxazine derivatives” (2012).
≈ marks a conversion by molar mass, not a printed value. Calls of active or inactive are those of the source. The calls are words filed in the database; no cut-off is given here.

Legend:
Rhodotorula mucilaginosa [1] = assay: Antifungal activity against Rhodotorula mucilaginosa NCIM 3174 at 1000 ug/disk after 72 hr by disk diffusion method; format: functional; conditions: NCIM 3174, 72 h, read-out: DIZ
Penicillium chrysogenum [2] = assay: Antifungal activity against Penicillium chrysogenum NCIM 707 after 72 hr by broth dilution assay; format: functional; conditions: NCIM 707, 72 h
Candida albicans [3] = assay: Antifungal activity against Candida albicans NCIM 3471 after 72 hr by broth dilution assay; format: functional; conditions: NCIM 3471, 72 h
Bacillus subtilis [4] = assay: Antibacterial activity against Bacillus subtilis NCIM 2063 at 500 ug/disk after 24 hr by disk diffusion method; format: functional
Streptomyces albus [5] = assay: Antibacterial activity against Streptomyces albus NCIM 2178 at 1000 ug/disk after 24 hr by disk diffusion method; format: functional
Klebsiella aerogenes [6] = assay: Antibacterial activity against Enterobacter aerogenes NCIM 2239 at 1000 ug/disk after 24 hr by disk diffusion method; format: functional; conditions: NCIM 2239, 24 h, read-out: DIZ
Bacillus cereus [7] = assay: Antibacterial activity against Bacillus cereus NCIM 2155 at 500 ug/disk after 24 hr by disk diffusion method; format: functional
Klebsiella aerogenes [8] = assay: Antibacterial activity against Enterobacter aerogenes NCIM 2239 at 500 ug/disk after 24 hr by disk diffusion method; format: functional
Escherichia coli [9] = assay: Antibacterial activity against Escherichia coli NCIM 2065 at 500 ug/disk after 24 hr by disk diffusion method; format: functional; conditions: NCIM 2065, 24 h, read-out: DIZ
Pseudomonas aeruginosa [10] = assay: Antibacterial activity against Pseudomonas aeruginosa NCIM 2200 at 1000 ug/disk after 24 hr by disk diffusion method; format: functional; conditions: NCIM 2200, 24 h, read-out: DIZ
Bacillus cereus [11] = assay: Antibacterial activity against Bacillus cereus NCIM 2155 at 1000 ug/disk after 24 hr by disk diffusion method; format: functional; conditions: NCIM 2155, 24 h, read-out: DIZ
Lipomyces lipofer [12] = assay: Antifungal activity against Lipomyces lipofer NCIM 3252 at 1000 ug/disk after 72 hr by disk diffusion method; format: functional; conditions: NCIM 3252, 72 h, read-out: DIZ
Aspergillus niger [13] = assay: Antifungal activity against Aspergillus niger NCIM 1196 at 1000 ug/disk after 72 hr by disk diffusion method; format: functional
Bacillus cereus [14] = assay: Antibacterial activity against Bacillus cereus NCIM 2155 after 24 hr by broth dilution assay; format: functional; conditions: NCIM 2155, 24 h
Penicillium chrysogenum [15] = assay: Antifungal activity against Penicillium chrysogenum NCIM 707 at 1000 ug/disk after 72 hr by disk diffusion method; format: functional; conditions: NCIM 707, 72 h, read-out: DIZ
Aspergillus niger [16] = assay: Antifungal activity against Aspergillus niger NCIM 1196 at 500 ug/disk after 72 hr by disk diffusion method; format: functional
Aspergillus flavus [17] = assay: Antifungal activity against Aspergillus flavus NCIM 535 at 500 ug/disk after 72 hr by disk diffusion method; format: functional
Penicillium chrysogenum [18] = assay: Antifungal activity against Penicillium chrysogenum NCIM 707 at 500 ug/disk after 72 hr by disk diffusion method; format: functional
Bacillus subtilis [19] = assay: Antibacterial activity against Bacillus subtilis NCIM 2063 after 24 hr by broth dilution assay; format: functional; conditions: NCIM 2063, 24 h
Klebsiella aerogenes [20] = assay: Antibacterial activity against Enterobacter aerogenes NCIM 2239 after 24 hr by broth dilution assay; format: functional; conditions: NCIM 2239, 24 h
Lipomyces lipofer [21] = assay: Antifungal activity against Lipomyces lipofer NCIM 3252 at 500 ug/disk after 72 hr by disk diffusion method; format: functional; conditions: NCIM 3252, 72 h, read-out: DIZ
Lipomyces lipofer [22] = assay: Antifungal activity against Lipomyces lipofer NCIM 3252 after 72 hr by broth dilution assay; format: functional; conditions: NCIM 3252, 72 h
Escherichia coli [23] = assay: Antibacterial activity against Escherichia coli NCIM 2065 after 24 hr by broth dilution assay; format: functional; conditions: NCIM 2065, 24 h
Pseudomonas aeruginosa [24] = assay: Antibacterial activity against Pseudomonas aeruginosa NCIM 2200 at 500 ug/disk after 24 hr by disk diffusion method; format: functional; conditions: NCIM 2200, 24 h, read-out: DIZ
Pseudomonas aeruginosa [25] = assay: Antibacterial activity against Pseudomonas aeruginosa NCIM 2200 after 24 hr by broth dilution assay; format: functional; conditions: NCIM 2200, 24 h
Aspergillus flavus [26] = assay: Antifungal activity against Aspergillus flavus NCIM 535 at 1000 ug/disk after 72 hr by disk diffusion method; format: functional
Rhodotorula mucilaginosa [27] = assay: Antifungal activity against Rhodotorula mucilaginosa NCIM 3174 at 500 ug/disk after 72 hr by disk diffusion method; format: functional
Escherichia coli [28] = assay: Antibacterial activity against Escherichia coli NCIM 2065 at 1000 ug/disk after 24 hr by disk diffusion method; format: functional; conditions: NCIM 2065, 24 h, read-out: DIZ
Streptomyces albus [29] = assay: Antibacterial activity against Streptomyces albus NCIM 2178 at 500 ug/disk after 24 hr by disk diffusion method; format: functional, organism-based
Bacillus subtilis [30] = assay: Antibacterial activity against Bacillus subtilis NCIM 2063 at 1000 ug/disk after 24 hr by disk diffusion method; format: functional; conditions: NCIM 2063, 24 h, read-out: DIZ
Candida albicans [31] = assay: Antifungal activity against Candida albicans NCIM 3471 at 1000 ug/disk after 72 hr by disk diffusion method; format: functional
Candida albicans [32] = assay: Antifungal activity against Candida albicans NCIM 3471 at 500 ug/disk after 72 hr by disk diffusion method; format: functional
Rhodotorula mucilaginosa [33] = assay: Antifungal activity against Rhodotorula mucilaginosa NCIM 3174 after 72 hr by broth dilution assay; format: functional; conditions: NCIM 3174, 72 h
Aspergillus niger [34] = assay: Antifungal activity against Aspergillus niger NCIM 1196 after 72 hr by broth dilution assay; format: functional; conditions: NCIM 1196, 72 h

Row | SMILES | zone of inhibition at 1000 µg/disc (Rhodotorula mucilaginosa [1]) [mm] | MIC (Penicillium chrysogenum [2]) [µg/mL] | diameter of the inhibition zone (DIZ) (Bacillus subtilis [4]) | diameter of the inhibition zone (DIZ) (Streptomyces albus [5]) | zone of inhibition at 1000 µg/disc (Klebsiella aerogenes [6]) [mm] | zone of inhibition at 500 µg/disc (Escherichia coli [9]) [mm] | zone of inhibition at 1000 µg/disc (Pseudomonas aeruginosa [10]) [mm] | zone of inhibition at 1000 µg/disc (Bacillus cereus [11]) [mm] | zone of inhibition at 1000 µg/disc (Lipomyces lipofer [12]) [mm] | MIC (Bacillus cereus [14]) [µg/mL] | zone of inhibition at 1000 µg/disc (Penicillium chrysogenum [15]) [mm] | diameter of the inhibition zone (DIZ) (Aspergillus flavus [17]) | diameter of the inhibition zone (DIZ) (Penicillium chrysogenum [18]) | MIC (Bacillus subtilis [19]) [µg/mL] | MIC (Klebsiella aerogenes [20]) [µg/mL] | zone of inhibition at 500 µg/disc (Lipomyces lipofer [21]) [mm] | MIC (Lipomyces lipofer [22]) [µg/mL] | MIC (Escherichia coli [23]) [µg/mL] | zone of inhibition at 500 µg/disc (Pseudomonas aeruginosa [24]) [mm] | MIC (Pseudomonas aeruginosa [25]) [µg/mL] | further results
1 | COc1ccc2nc3[nH]c(=O)[nH]c(=O)c3cc2c1 | 10 | 62.5 (≈ 257 µM) | inactive | inactive | 13 | 10 | 13 | 12 | 11 | 31.2 (≈ 128 µM) | 9 | inactive | inactive | 62.5 (≈ 257 µM) | 3.9 (≈ 16 µM) | 9 | 31.2 (≈ 128 µM) | 7.8 (≈ 32.1 µM) | 9 | 31.2 (≈ 128 µM) | MIC (Candida albicans [3]): 31.2 µg/mL (≈ 128 µM); zone of inhibition at 500 µg/disc (Bacillus cereus [7]; NCIM 2155, 24 h, read-out: DIZ): 9 mm; zone of inhibition at 500 µg/disc (Klebsiella aerogenes [8]; NCIM 2239, 24 h, read-out: DIZ): 10 mm; diameter of the inhibition zone (DIZ) (Aspergillus niger [13]): inactive; diameter of the inhibition zone (DIZ) (Aspergillus niger [16]): inactive; zone of inhibition at 1000 µg/disc (Aspergillus flavus [26]; NCIM 535, 72 h, read-out: DIZ): 9 mm; diameter of the inhibition zone (DIZ) (Rhodotorula mucilaginosa [27]): inactive; zone of inhibition at 1000 µg/disc (Escherichia coli [28]): 12 mm; diameter of the inhibition zone (DIZ) (Streptomyces albus [29]): inactive; zone of inhibition at 1000 µg/disc (Bacillus subtilis [30]): 9 mm; zone of inhibition at 1000 µg/disc (Candida albicans [31]; NCIM 3471, 72 h, read-out: DIZ): 10 mm; zone of inhibition at 500 µg/disc (Candida albicans [32]; NCIM 3471, 72 h, read-out: DIZ): 9 mm; MIC (Rhodotorula mucilaginosa [33]): 15.6 µg/mL (≈ 64.1 µM)
2 | COc1ccc2nc3[nH]c(=S)[nH]c(=O)c3cc2c1 | 8 | 125 (≈ 482 µM) | inactive | inactive | 13 | 9 | 15 | 10 | 12 | 125 (≈ 482 µM) | 12 | inactive | inactive | 62.5 (≈ 241 µM) | 15.6 (≈ 60.2 µM) | 11 | 125 (≈ 482 µM) | 31.2 (≈ 120 µM) | 9 | 3.9 (≈ 15 µM) | diameter of the inhibition zone (DIZ) (Bacillus cereus [7]): inactive; diameter of the inhibition zone (DIZ) (Klebsiella aerogenes [8]): inactive; MIC (Aspergillus niger [34]): 7.8 µg/mL (≈ 30.1 µM); zone of inhibition at 1000 µg/disc (Aspergillus niger [13]; NCIM 1196, 72 h, read-out: DIZ): 13 mm; zone of inhibition at 500 µg/disc (Aspergillus niger [16]; NCIM 1196, 72 h, read-out: DIZ): 11 mm; diameter of the inhibition zone (DIZ) (Aspergillus flavus [26]): inactive; diameter of the inhibition zone (DIZ) (Rhodotorula mucilaginosa [27]): inactive; zone of inhibition at 1000 µg/disc (Escherichia coli [28]): 13 mm; diameter of the inhibition zone (DIZ) (Streptomyces albus [29]): inactive; zone of inhibition at 1000 µg/disc (Bacillus subtilis [30]): 11 mm; diameter of the inhibition zone (DIZ) (Candida albicans [31]): inactive; diameter of the inhibition zone (DIZ) (Candida albicans [32]): inactive
